Measured values as given in ChEMBL document CHEMBL3044810, “Synthesis and herbicidal activity of alkyl 1-(3-trifluoromethylphenoxyacetoxy)-1-substituted methylphosphonates” (J Pestic Sci, 2007).

What was measured:
[1] = test system: Echinochloa crus-galli; assay: Post-emergence herbicidal activity against Echinochloa crus-galli (barnyard grass) assessed as growth inhibition at 1.5 ai kg/ha under green house conditions; format: functional
[2] = test system: Digitaria sanguinalis; assay: Post-emergence herbicidal activity against Digitaria sanguinalis (hairy crabgrass) assessed as growth inhibition at 1.5 ai kg/ha under green house conditions; format: functional
[3] = test system: Digitaria sanguinalis; assay: Pre-emergence herbicidal activity against Digitaria sanguinalis (hairy crabgrass) assessed as growth inhibition at 1.5 ai kg/ha under green house conditions; format: functional
[4] = test system: Brassica napus; assay: Post-emergence herbicidal activity against Brassica napus (oilseed rape) assessed as growth inhibition at 1.5 ai kg/ha under green house conditions; format: functional
[5] = test system: Echinochloa crus-galli; assay: Pre-emergence herbicidal activity against Echinochloa crus-galli (barnyard grass) assessed as growth inhibition at 1.5 ai kg/ha under green house conditions; format: functional
[6] = test system: Amaranthus retroflexus; assay: Post-emergence herbicidal activity against Amaranthus retroflexus assessed as growth inhibition at 1.5 ai kg/ha under green house conditions; format: functional
[7] = test system: Medicago sativa; assay: Post-emergence herbicidal activity against Medicago sativa (alfalfa) assessed as growth inhibition at 1.5 ai kg/ha under green house conditions; format: functional
[8] = test system: Cucumis sativus; assay: Pre-emergence growth inhibition of Cucumis sativus (cucumber) under green house conditions; format: functional, organism-based
[9] = test system: Amaranthus retroflexus; assay: Pre-emergence herbicidal activity against Amaranthus retroflexus assessed as growth inhibition at 1.5 ai kg/ha under green house conditions; format: functional
[10] = test system: Medicago sativa; assay: Pre-emergence herbicidal activity against Medicago sativa (alfalfa) assessed as growth inhibition at 1.5 ai kg/ha under green house conditions; format: functional
[11] = test system: Brassica napus; assay: Pre-emergence herbicidal activity against Brassica napus (oilseed rape) assessed as growth inhibition at 1.5 ai kg/ha under green house conditions; format: functional

Compound	growth inhibition (GI) [1] [%]	growth inhibition (GI) [2] [%]	growth inhibition (GI) [3] [%]	growth inhibition (GI) [4] [%]	growth inhibition (GI) [5] [%]	growth inhibition (GI) [6] [%]	growth inhibition (GI) [7] [%]	IC50 [8] [µg/g]	growth inhibition (GI) [9] [%]	growth inhibition (GI) [10] [%]	growth inhibition (GI) [11] [%]
COP(=O)(OC)C(OC(=O)COc1cccc(C(F)(F)F)c1)c1ccccc1Cl (centres undefined)	23.5	36	97.9	54.6	54	100	100	3.57	100	100	61
COP(=O)(OC)C(C)OC(=O)COc1cccc(C(F)(F)F)c1 (centres undefined)	12.3	39.1	73.1	92.6	57.3	27.3	100	–	43.4	63.8	56.1
CCOP(=O)(OCC)C(C)OC(=O)COc1ccc(C)cc1 (centres undefined)	47.4	0	0	30.9	–	0	–	–	–	–	62.17
COP(=O)(OC)C(C)OC(=O)COc1cccc(Cl)c1Cl (centres undefined)	13.6	35.5	0	23.3	19.1	43.8	0	74.11	16.7	8.3	0
CCOP(=O)(OCC)C(OC(=O)COc1cccc(C(F)(F)F)c1)c1ccc(Cl)cc1 (centres undefined)	5.6	16	95.7	45.4	76.5	86.3	100	4.32	86.4	100	13.8
COP(=O)(OC)C(OC(=O)COc1ccc(Cl)cc1Cl)c1ccccc1Cl (centres undefined)	50	68.75	50	100	70	100	–	0.048	100	–	100
COP(=O)(OC)C(OC(=O)COc1cccc(C(F)(F)F)c1)c1ccc(C)cc1 (centres undefined)	23.6	0	95.7	14.2	80.4	96.2	91.2	4.04	100	100	50.4
COP(=O)([O-])COC(=O)COc1ccc(Cl)cc1Cl.[Na+]	28	28.6	90.3	97.7	84.6	100	92.5	0.31	96.6	100	96.6
COP(=O)(OC)C(OC(=O)COc1cccc(C(F)(F)F)c1)c1ccc2c(c1)OCO2 (centres undefined)	15.3	12	93.2	43.3	70.6	88.5	100	4.87	100	100	64.6
COP(=O)(OC)C(OC(=O)COc1ccc([N+](=O)[O-])cc1)c1ccccc1 (centres undefined)	0	-5.2	0	5.49	0.8	–	–	223	–	–	-2.78
O=C(O)COc1ccc(Cl)cc1Cl [2,4-DICHLOROPHENOXYACETIC ACID]	54.5	59.6	88.7	89.13	80	100	95.5	0.1379	95.5	90	100
COP(=O)(OC)C(C)OC(=O)COc1cc(F)cc(F)c1 (centres undefined)	3.8	27.2	0	0	0	14.9	0	93.5	0	10.4	0
COP(=O)(OC)C(C)OC(=O)COc1ccc(F)cc1F (centres undefined)	20.2	48.5	73.6	61	36	77.5	49.4	0.59	38.9	52.1	39.3
COP(=O)(OC)C(C)OC(=O)COc1ccc(Cl)cc1Cl (centres undefined) [CLACYFOS]	50	55	70	100	70	100	100	–	100	98	99.5
CCCC(OC(=O)COc1ccc(Cl)cc1Cl)P(=O)([O-])OC.[K+] (centres undefined)	33.8	38.9	35.2	42.6	32.1	38.5	91.2	4.21	18.6	10.2	37
O=C(COc1ccc(Cl)cc1Cl)OC(c1ccccc1Cl)P(=O)(O)O (centres undefined)	20.5	13	23	49	10	23	–	–	23	–	67
COP(=O)(OC)C(C)OC(=O)COc1cccc(F)c1 (centres undefined)	17.8	22.7	0	0	4.4	0	0	111.13	0	0	0
COP(=O)(OC)C(OC(=O)COc1cccc(C(F)(F)F)c1)c1ccc(Cl)cc1 (centres undefined)	0	12	91.5	57.4	84.2	88.5	100	3.16	100	89.8	38.6
COP(=O)(OC)C(C)OC(=O)COc1ccccc1 (centres undefined)	12	0	0	21	0	5	9.4	89.1	0	27.2	7.1
CCOP(=O)(OCC)C(OC(=O)COc1cccc(C(F)(F)F)c1)c1ccc2c(c1)OCO2 (centres undefined)	0	24	100	61.7	80.4	88.5	100	5.91	95.5	93.2	12.6
